Results: patent publication US20260327246A1, “FUSED RING KRAS INHIBITORS FOR TREATING DISEASE” (BLOSSOMHILL THERAPEUTICS, INC., priority 2023, published 2026)

Columns and labels:
SW620 (KRAS G12V) = assay: Cell Proliferation Assay (CellTiter-Glo 2.0), SW620; assay type: cell-based; details: Homo sapiens, SW-620; SW620 (KRAS G12V) cells; 72 hours at 37° C., 5% CO2; read-out: Anti-proliferation IC50, SW620 (KRAS G12V)
Protocol: (§1) Two thousand KRAS mutant cells per well are seeded in 384-well white plate and then treated with indicated compounds for 72 hours at 37° C. and 5% CO2. Cell proliferation is measured using CellTiter-Glo 2.0 luciferase-based ATP detection assay (Promega, Madison, WI) following the manufacturer's protocol. IC50 values are determined using Prism software (GraphPad Software, San Diego, CA).

GP2D (KRAS G12D) = assay: Cell Proliferation Assay (CellTiter-Glo 2.0), GP2D; assay type: cell-based; details: GP2D (KRAS G12D) cells; 72 hours at 37° C., 5% CO2; read-out: Anti-proliferation IC50, GP2D (KRAS G12D)
Protocol: as §1

Row | IC50 (SW620 (KRAS G12V)) [nM] | SMILES | IC50 (GP2D (KRAS G12D)) [nM]
1 | 142 | C#Cc1c(F)ccc2cc(O)cc(-c3nc4c5c(nc(OC[C@@]67CCCN6C[C@H](F)C7)nc5c3F)N3CCCCC3C(O)C4)c12 (stereo partly drawn) [compound 29, 5-(8-ethynyl-7-fluoro-3-hydroxynaphthalen-1-yl)-4-fluoro-2-{[(2R,7aS)-2-fluorotetrahydro-1H-pyrrolizin-7a(5H)-yl]methoxy}-8,8a,9,10,11,12-hexahydro-7H-1,3,6,12a-tetraazabenzo[4,5]cyclohepta[1,2,3-de]naphthalen-8-ol] | 14
2 | 1720 | C#Cc1c(F)ccc2cc(O)cc(-c3nc4c5c(nc(OC[C@@]67CCCN6C[C@H](F)C7)nc5c3F)N3CCCCC3=C4C)c12 [compound 30, 5-ethynyl-6-fluoro-4-(4-fluoro-2-{[(2R,7aS)-2-fluorotetrahydro-1H-pyrrolizin-7a(5H)-yl]methoxy}-7-methyl-8,9,10,11-tetrahydropyrido[1,2-g]pyrimido[4,5,6-de][1,6]naphthyridin-5-yl)naphthalen-2-ol] | 819
3 | 591 | CCc1c(F)ccc2cc(O)cc(-c3nc4c5c(nc(OC[C@@]67CCCN6C[C@H](F)C7)nc5c3F)N3CCCCC3C=C4)c12 (stereo partly drawn) [compound 31, 5-ethyl-6-fluoro-4-(4-fluoro-2-{[(2R,7aS)-2-fluorotetrahydro-1H-pyrrolizin-7a(5H)-yl]methoxy}-9,10,11,12-tetrahydro-8aH-1,3,6,12a-tetraazabenzo[4,5]cyclohepta[1,2,3-de]naphthalen-5-yl)naphthalen-2-ol] | 136
4 | 2040 | C=Cc1c(F)ccc2cc(O)cc(-c3nc4c5c(nc(OC[C@@]67CCCN6C[C@H](F)C7)nc5c3F)N3CCCCC3C(C#N)C4)c12 (stereo partly drawn) [compound 32, 5-(8-ethenyl-7-fluoro-3-hydroxynaphthalen-1-yl)-4-fluoro-2-{[(2R,7aS)-2-fluorotetrahydro-1H-pyrrolizin-7a(5H)-yl]methoxy}-8,8a,9,10,11,12-hexahydro-7H-1,3,6,12a-tetraazabenzo[4,5]cyclohepta[1,2,3-de]naphthalene-8-carbonitrile] | 461
